Target: GCN2 (Homo sapiens (Human), UniProt Q9P2K8)
Assay: GCN2 Biochemical Assay (TR-FRET, GFP-eIF2S1 substrate phosphorylation)
Details: read-out: IC50 (GCN2 Inhibitory Activity)
In short: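 TR-FRET readout (Ex 340, Em 490/520 nm) after 2–3 h with Tb-labelled phospho-eIF2S1 antibody in stop mix, following a 70 min room-temperature kinase step. Reaction: in-house GCN2, GFP-eIF2S1, ATP, tRNA in Tris pH 7.5 (2× stocks 1.6 nM, 50 nM, 0.2 mM); compounds tested at 10 concentrations, with a phospho-substrate artifact counter-plate.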

Sequence of GCN2 (Q9P2K8 whole entry): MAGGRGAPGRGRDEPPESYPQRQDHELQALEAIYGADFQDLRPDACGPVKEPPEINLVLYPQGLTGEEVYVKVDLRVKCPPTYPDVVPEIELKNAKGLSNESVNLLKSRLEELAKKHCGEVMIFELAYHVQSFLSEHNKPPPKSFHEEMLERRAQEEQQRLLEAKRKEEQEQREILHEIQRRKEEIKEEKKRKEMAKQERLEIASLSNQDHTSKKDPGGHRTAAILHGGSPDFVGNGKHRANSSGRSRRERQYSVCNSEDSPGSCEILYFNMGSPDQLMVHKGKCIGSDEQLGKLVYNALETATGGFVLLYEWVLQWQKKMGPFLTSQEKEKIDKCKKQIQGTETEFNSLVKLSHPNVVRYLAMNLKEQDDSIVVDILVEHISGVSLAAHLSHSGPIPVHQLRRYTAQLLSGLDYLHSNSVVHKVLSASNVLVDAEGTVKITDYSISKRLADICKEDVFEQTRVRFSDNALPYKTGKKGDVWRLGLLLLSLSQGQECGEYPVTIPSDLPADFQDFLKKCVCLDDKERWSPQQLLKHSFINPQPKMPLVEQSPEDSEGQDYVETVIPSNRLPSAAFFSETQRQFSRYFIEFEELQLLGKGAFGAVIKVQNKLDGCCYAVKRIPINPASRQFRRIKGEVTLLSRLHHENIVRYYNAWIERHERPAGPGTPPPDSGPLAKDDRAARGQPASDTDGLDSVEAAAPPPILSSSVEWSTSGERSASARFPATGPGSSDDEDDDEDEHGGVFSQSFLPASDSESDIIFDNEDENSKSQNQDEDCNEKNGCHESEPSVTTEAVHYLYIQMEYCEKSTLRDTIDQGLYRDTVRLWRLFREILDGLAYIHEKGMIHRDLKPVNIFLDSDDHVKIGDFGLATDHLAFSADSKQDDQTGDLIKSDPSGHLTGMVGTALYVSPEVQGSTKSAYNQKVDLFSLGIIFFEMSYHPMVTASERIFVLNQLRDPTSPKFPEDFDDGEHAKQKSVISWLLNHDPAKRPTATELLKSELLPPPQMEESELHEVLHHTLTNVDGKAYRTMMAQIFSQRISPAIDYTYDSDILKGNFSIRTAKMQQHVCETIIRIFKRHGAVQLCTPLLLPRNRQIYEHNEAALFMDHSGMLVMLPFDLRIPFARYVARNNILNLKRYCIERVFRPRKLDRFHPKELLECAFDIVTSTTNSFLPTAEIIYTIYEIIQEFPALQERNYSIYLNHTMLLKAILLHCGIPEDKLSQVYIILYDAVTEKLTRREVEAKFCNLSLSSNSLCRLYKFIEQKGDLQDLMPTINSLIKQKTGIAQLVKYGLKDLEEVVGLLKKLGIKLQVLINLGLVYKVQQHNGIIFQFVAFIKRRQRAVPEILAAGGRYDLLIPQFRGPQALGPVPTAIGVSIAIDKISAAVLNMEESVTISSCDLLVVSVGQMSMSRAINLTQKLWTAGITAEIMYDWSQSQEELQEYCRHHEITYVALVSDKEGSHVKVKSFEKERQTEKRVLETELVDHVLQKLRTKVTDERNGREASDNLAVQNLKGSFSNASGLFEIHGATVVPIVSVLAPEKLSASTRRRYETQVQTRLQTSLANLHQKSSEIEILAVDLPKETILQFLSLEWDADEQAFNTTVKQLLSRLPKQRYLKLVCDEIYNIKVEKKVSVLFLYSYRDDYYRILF

| Structure (SMILES) | IC50 |
| --- | --- |
| Cc1cnc(Nc2cc(C)n(C)n2)nc1-c1c[nH]c2c(NC(=O)CN3CC[C@H](Oc4ccsc4C(N)=O)C3)cccc12 [Example 109, (S)-3-((1-(2-((3-(2-((1,5-dimethyl-1H-pyrazol-3-yl)amino)-5-methylpyrimidin-4-yl)-1H-indol-7-yl)amino)-2-oxoethyl)pyrrolidin-3-yl)oxy)thiophene-2-carboxamide] | < 10 nM |
| Cc1cc(O[C@H]2CCN(CC(=O)Nc3cccc4c(-c5nc(Nc6cc(C)n(C)n6)ncc5C)c[nH]c34)C2)no1 [Example 112, (S)-N-(3-(2-((1,5-dimethyl-1H-pyrazol-3-yl)amino)-5-methylpyrimidin-4-yl)-1H-indol-7-yl)-2-(3-((5-methylisoxazol-3-yl)oxy)pyrrolidin-1-yl)acetamide] | 10 to 100 nM |
| Cc1cnc(Nc2cc(C)n(C)n2)nc1-c1c[nH]c2c(NC(=O)CN3CC[C@H](Oc4ccsn4)C3)cccc12 [Example 114, (S)-N-(3-(2-((1,5-dimethyl-1H-pyrazol-3-yl)amino)-5-methylpyrimidin-4-yl)-1H-indol-7-yl)-2-(3-(isothiazol-3-yloxy)pyrrolidin-1-yl)acetamide] | 10 to 100 nM |
| Cc1cnc(Nc2cc(C)n(C)n2)nc1-c1c[nH]c2c(NC(=O)CN3CC[C@H](Oc4ccsc4C)C3)cccc12 [Example 115, (S)-N-(3-(2-((1,5-dimethyl-1H-pyrazol-3-yl)amino)-5-methylpyrimidin-4-yl)-1H-indol-7-yl)-2-(3-((2-methylthiophen-3-yl)oxy)pyrrolidin-1-yl)acetamide] | 10 to 100 nM |
| Cc1cnc(Nc2cc(C)n(C)n2)nc1-c1c[nH]c2c(NC(=O)CN3CC[C@H](Oc4cc[nH]n4)C3)cccc12 [Example 116, (S)-2-(3-((1H-pyrazol-3-yl)oxy)pyrrolidin-1-yl)-N-(3-(2-((1,5-dimethyl-1H-pyrazol-3-yl)amino)-5-methylpyrimidin-4-yl)-1H-indol-7-yl)acetamide] | 10 to 100 nM |
| CCOC(=O)c1cnoc1O[C@H]1CCN(CC(=O)Nc2cccc3c(-c4nc(Nc5cc(C)n(C)n5)ncc4C)c[nH]c23)C1 [Example 121, ethyl (S)-5-((1-(2-((3-(2-((1,5-dimethyl-1H-pyrazol-3-yl)amino)-5-methylpyrimidin-4-yl)-1H-indol-7-yl)amino)-2-oxoethyl)pyrrolidin-3-yl)oxy)isoxazole-4-carboxylate] | < 10 nM |
| Cc1cnc(Nc2cc(C)n(C)n2)nc1-c1c[nH]c2c(NC(=O)CN3CC[C@H](Oc4cc(C(N)=O)on4)C3)cccc12 [Example 122, (S)-3-((1-(2-((3-(2-((1,5-dimethyl-1H-pyrazol-3-yl)amino)-5-methylpyrimidin-4-yl)-1H-indol-7-yl)amino)-2-oxoethyl)pyrrolidin-3-yl)oxy)isoxazole-5-carboxamide] | 10 to 100 nM |
| CNC(=O)c1cc(O[C@H]2CCN(CC(=O)Nc3cccc4c(-c5nc(Nc6cc(C)n(C)n6)ncc5C)c[nH]c34)C2)no1 [Example 123, (S)-3-((1-(2-((3-(2-((1,5-dimethyl-1H-pyrazol-3-yl)amino)-5-methylpyrimidin-4-yl)-1H-indol-7-yl)amino)-2-oxoethyl)pyrrolidin-3-yl)oxy)-N-methylisoxazole-5-carboxamide] | 10 to 100 nM |
| Cc1cnc(Nc2cc(C)n(C)n2)nc1-c1c[nH]c2c(NC(=O)CN3CC[C@H](Oc4nc(C(=O)NC5CC5)co4)C3)cccc12 [Example 127, (S)-N-cyclopropyl-2-((1-(2-((3-(2-((1,5-dimethyl-1H-pyrazol-3-yl)amino)-5-methylpyrimidin-4-yl)-1H-indol-7-yl)amino)-2-oxoethyl)pyrrolidin-3-yl)oxy)oxazole-4-carboxamide] | 10 to 100 nM |
| CNC(=O)c1ccnc(O[C@H]2CCN(CC(=O)Nc3cccc4c(-c5nc(Nc6cc(C)n(C)n6)ncc5C)c[nH]c34)C2)n1 [Example 130, (S)-2-((1-(2-((3-(2-((1,5-dimethyl-1H-pyrazol-3-yl)amino)-5-methylpyrimidin-4-yl)-1H-indol-7-yl)amino)-2-oxoethyl)pyrrolidin-3-yl)oxy)-N-methylpyrimidine-4-carboxamide] | 10 to 100 nM |
| CNC(=O)c1cncc(O[C@H]2CCN(CC(=O)Nc3cccc4c(-c5nc(Nc6cc(C)n(C)n6)ncc5C)c[nH]c34)C2)n1 [Example 133, (S)-6-((1-(2-((3-(2-((1,5-dimethyl-1H-pyrazol-3-yl)amino)-5-methylpyrimidin-4-yl)-1H-indol-7-yl)amino)-2-oxoethyl)pyrrolidin-3-yl)oxy)-N-methylpyrazine-2-carboxamide] | < 10 nM |

More lines, now with the values ahead:

| IC50 | Structure (SMILES) |
| --- | --- |
| < 10 nM | CNC(=O)c1sccc1O[C@H]1CCN(CC(=O)Nc2cccc3c(-c4nc(Nc5cc(C)n(C)n5)ncc4C)c[nH]c23)C1 [Example 110, (S)-3-((1-(2-((3-(2-((1,5-dimethyl-1H-pyrazol-3-yl)amino)-5-methylpyrimidin-4-yl)-1H-indol-7-yl)amino)-2-oxoethyl)pyrrolidin-3-yl)oxy)-N-methylthiophene-2-carboxamide] |
| < 10 nM | Cc1cnc(Nc2cc(C)n(C)n2)nc1-c1c[nH]c2c(NC(=O)CN3CC[C@H](Oc4ccsc4C(=O)NC4CC4)C3)cccc12 [Example 111, (S)-N-cyclopropyl-3-((1-(2-((3-(2-((1,5-dimethyl-1H-pyrazol-3-yl)amino)-5-methylpyrimidin-4-yl)-1H-indol-7-yl)amino)-2-oxoethyl)pyrrolidin-3-yl)oxy)thiophene-2-carboxamide] |
| 10 to 100 nM | Cc1cnc(Nc2cc(C)n(C)n2)nc1-c1c[nH]c2c(NC(=O)CN3CC[C@H](Oc4noc5ccccc45)C3)cccc12 [Example 113, (S)-2-(3-(benzo[d]isoxazol-3-yloxy)pyrrolidin-1-yl)-N-(3-(2-((1,5-dimethyl-1H-pyrazol-3-yl)amino)-5-methylpyrimidin-4-yl)-1H-indol-7-yl)acetamide] |
| < 10 nM | Cc1cnc(Nc2cc(C)n(C)n2)nc1-c1c[nH]c2c(NC(=O)CN3CC[C@H](Oc4ccon4)C3)cccc12 [Example 118, (S)-N-(3-(2-((1,5-dimethyl-1H-pyrazol-3-yl)amino)-5-methylpyrimidin-4-yl)-1H-indol-7-yl)-2-(3-(isoxazol-3-yloxy)pyrrolidin-1-yl)acetamide] |
| 10 to 100 nM | Cc1cnc(Nc2cc(C)n(C)n2)nc1-c1c[nH]c2c(NC(=O)CN3CC[C@H](Oc4cc(N)[nH]n4)C3)cccc12 [Example 119, (S)-2-(3-((5-amino-1H-pyrazol-3-yl)oxy)pyrrolidin-1-yl)-N-(3-(2-((1,5-dimethyl-1H-pyrazol-3-yl)amino)-5-methylpyrimidin-4-yl)-1H-indol-7-yl)acetamide] |
| < 10 nM | COC(=O)c1[nH]ccc1O[C@H]1CCN(CC(=O)Nc2cccc3c(-c4nc(Nc5cc(C)n(C)n5)ncc4C)c[nH]c23)C1 [Example 120, methyl (S)-3-((1-(2-((3-(2-((1,5-dimethyl-1H-pyrazol-3-yl)amino)-5-methylpyrimidin-4-yl)-1H-indol-7-yl)amino)-2-oxoethyl)pyrrolidin-3-yl)oxy)-1H-pyrrole-2-carboxylate] |
| < 10 nM | Cc1cnc(Nc2cc(C)n(C)n2)nc1-c1c[nH]c2c(NC(=O)CN3CC[C@H](Oc4cc(C(=O)NC5CC5)on4)C3)cccc12 [Example 124, (S)-N-cyclopropyl-3-((1-(2-((3-(2-((1,5-dimethyl-1H-pyrazol-3-yl)amino)-5-methylpyrimidin-4-yl)-1H-indol-7-yl)amino)-2-oxoethyl)pyrrolidin-3-yl)oxy)isoxazole-5-carboxamide] |
| 10 to 100 nM | Cc1cnc(Nc2cc(C)n(C)n2)nc1-c1c[nH]c2c(NC(=O)CN3CC[C@H](Oc4cc(C(=O)N(C)C)on4)C3)cccc12 [Example 125, (S)-3-((1-(2-((3-(2-((1,5-dimethyl-1H-pyrazol-3-yl)amino)-5-methylpyrimidin-4-yl)-1H-indol-7-yl)amino)-2-oxoethyl)pyrrolidin-3-yl)oxy)-N,N-dimethylisoxazole-5-carboxamide] |
| 10 to 100 nM | Cc1cnc(Nc2cc(C)n(C)n2)nc1-c1c[nH]c2c(NC(=O)CN3CC[C@H](Oc4ncc(C(=O)NC5CC5)o4)C3)cccc12 [Example 126, (S)-N-cyclopropyl-2-((1-(2-((3-(2-((1,5-dimethyl-1H-pyrazol-3-yl)amino)-5-methylpyrimidin-4-yl)-1H-indol-7-yl)amino)-2-oxoethyl)pyrrolidin-3-yl)oxy)oxazole-5-carboxamide] |
| 10 to 100 nM | Cc1cnc(Nc2cc(C)n(C)n2)nc1-c1c[nH]c2c(NC(=O)CN3CC[C@H](Oc4nccc(C(=O)O)n4)C3)cccc12 [Example 128, (S)-2-((1-(2-((3-(2-((1,5-dimethyl-1H-pyrazol-3-yl)amino)-5-methylpyrimidin-4-yl)-1H-indol-7-yl)amino)-2-oxoethyl)pyrrolidin-3-yl)oxy)pyrimidine-4-carboxylic acid] |
| 10 to 100 nM | Cc1cnc(Nc2cc(C)n(C)n2)nc1-c1c[nH]c2c(NC(=O)CN3CC[C@H](Oc4nccc(C(N)=O)n4)C3)cccc12 [Example 129, (S)-2-((1-(2-((3-(2-((1,5-dimethyl-1H-pyrazol-3-yl)amino)-5-methylpyrimidin-4-yl)-1H-indol-7-yl)amino)-2-oxoethyl)pyrrolidin-3-yl)oxy)pyrimidine-4-carboxamide] |
| 10 to 100 nM | Cc1cnc(Nc2cc(C)n(C)n2)nc1-c1c[nH]c2c(NC(=O)CN3CC[C@H](Oc4nccc(C(=O)N(C)C)n4)C3)cccc12 [Example 131, (S)-2-((1-(2-((3-(2-((1,5-dimethyl-1H-pyrazol-3-yl)amino)-5-methylpyrimidin-4-yl)-1H-indol-7-yl)amino)-2-oxoethyl)pyrrolidin-3-yl)oxy)-N,N-dimethylpyrimidine-4-carboxamide] |
| < 10 nM | Cc1cnc(Nc2cc(C)n(C)n2)nc1-c1c[nH]c2c(NC(=O)CN3CC[C@H](Oc4cncc(C(N)=O)n4)C3)cccc12 [Example 132, (S)-6-((1-(2-((3-(2-((1,5-dimethyl-1H-pyrazol-3-yl)amino)-5-methylpyrimidin-4-yl)-1H-indol-7-yl)amino)-2-oxoethyl)pyrrolidin-3-yl)oxy)pyrazine-2-carboxamide] |

Reference: patent US20240025884A1 (Dong-A ST Co., Ltd., priority 2022, published 2024)
